# Assay results: patent publication US10137171B2, “Methods of treatment using a pentapeptide derived from the C-Terminus of Glucagon-Like Peptide 1 (GLP-1)” (The General Hospital Corporation, priority 2011, dated 2018)
# Entries after “also recorded” stand apart in the source; their conditions may differ. Where no end group is shown, it is not given here.
# Columns and labels:
# Format in all cases: in vivo, mouse
# [1] = tested on: diet-induced obese mice; assay: Fasting plasma glucose and insulin measurements; settings: 16 h fast, after 12 weeks infusion, 29 weeks on VHFD
# Excerpt: FIGS. 5A-B are a pair of bar graphs showing that GLP-1(32-36)amide attenuates the development of fasting hyperglycemia and hyperinsulinemia in high fat-fed mice. Mice fed the VHFD develop hyperglycemia, hyperinsulinemia, diabetes, and insulin resistance during weeks 15 to 29 of diet-induced obesity (21-35 weeks of age, respectively). A 12-week infusion of either control vehicle or pentapeptide started at 17 weeks on high-fat diet (23 weeks of age). FIG. 5A: Fasting plasma glucose levels *p<0.0004 vehicle vs. GLP-1(32-36)a. FIG. 5B: Fasting insulin levels *p<0.042 vehicle vs. GLP-1(32-36)a. The studies are in mice fed a VHFD for 15 weeks, two weeks before beginning the continuous infusions of either control vehicle or pentapeptide. Continuous infusions of vehicle or pentapeptide GLP-1(32-36)amide were give during weeks 17 to 29 of diet (23 to 35 weeks of age). Weeks denoted on the ordinate scales refers to weeks of age. N=6 mice per group. Values are means+/−SEMs.
# Plasma obtained by tail nick from mice fasted for 16 hrs was assayed for glucose by using the one touch ultra-mini glucometer (Life Scan, Johnson and Johnson company) and for insulin with a rat/mouse Elisa kit (Crystal Chem, Downers Grove, Ill.).
# Fasting immunoreactive insulin levels: whole blood samples were spun in a refrigerated microfuge at 14,000 rpm for 10 minutes and transferred to a clean tube. […]
# [2] = tested on: diet-induced obese mice; assay: Plasma circulating glycerol and triglyceride (FIG. 6C); settings: 16 weeks continuous infusion, 60% fat diet 24 weeks (FIG. 6C)
# Excerpt: FIG. 6C is a table showing continuous infusion of GLP-1(32-36)amide for 16-weeks improves plasma circulating levels of glycerol and triglyceride in mice fed on a 60% fat diet (VHFD) for 24-weeks. *p<0.02, peptide vs. vehicle; **p<0.008 peptide vs. vehicle.
# [3] = tested on: diet-induced obese mice; assay: Continuous osmopump infusion in very high-fat diet-induced obese mice: body weight, energy intake, Feed Efficiency
# Experimental: The data encompass twelve weeks, from week 2 to week 14 of continuous infusions of control vehicle and GLP-1(32-36)amide. GLP-1(32-36)amide was administered to mice via mini-osmopumps (Alzet #1004) at a rate of 40 nanomoles/Kg body weight/24 hours. Male C57bl/6j mice were placed on a high fat diet (Research Diets, #D12492, 60 kcal % fat) at six weeks of age and continued for 17 weeks before starting osmopump infusions at age 23 weeks. 1A. Line graph showing time-dependent changes in body weight (BW) over fourteen weeks of infusions of control vehicle and pentapeptide GLP-1(32-36)amide. (*) p<0.05 versus vehicle control; (**) p<0.04 versus vehicle control; (***) p<0.034; (#) p<0.01; (##) p<0.004; (###) p<0.0006, 0.0007; (####) p<0.0001. 1B. N=six mice per group. Values are means+/−SEMs. *p<0.013 peptide vs. vehicle. At week two of infusions of vehicle and pentapeptide the mice weighed 37.2 and 38.2 gms (averages of six mice), respectively. N=six mice per group.
# FIG. 3 is a bar graph showing feed efficiency at the end of 12 week infusion. GLP-1(32-36)amide infusions in diet-induced obese mice lowers the Feed Efficiency index. The data are the means+/−SEMs (*p<0.06 pentapeptide vs. vehicle) of the values calculated from the […] period of infusions of control vehicle and GLP-1(32-36)amide shown in FIG. 4. The Feed efficiency (FE) is a calculation of the body weight (gms) divided by the energy intake kcal) in the food consumed. […] Basal energy expenditure in mice treated with pentapeptide is increased compared to mice treated with control vehicle. N=6 mice per group.
# Male C57bl/6 mice at […] were placed on a very high-fat diet (VHFD, 60% fat, Research Diets) for 17 weeks. At week 17 the mice on the high-fat diet, corresponding to 23 weeks of age, mini-osmopumps containing either vehicle or GLP-1(32-36)amide were implanted subcutaneously for delivery of peptide or vehicle over 16 weeks. Forty nanomoles (20 micrograms) of GLP-1(32-36) was diluted in saline containing 0.1% human serum albumin and were infused at a rate of forty nanomoles/kgBW/day for 16 weeks to achieve an estimated concentration of approximately 100 pM similar to that reported by infusions of GLP-1(7-36)amide. For infusions longer than 4 weeks additional osmopumps with peptide were implanted at the end of each 4 weeks infusion. Body weights were recorded weekly. Food consumption was assessed every 3 to 4 days by weight. Energy intake (kcal/gm BW/week) and Feed Efficiency Index (FEI) were evaluated during the infusions of vehicle or peptide. The latter provides a measure of the efficiency of caloric conversion to body weight and it is calculated by determining the grams of body weight gain per cage/Kcal of food consumed per cage, [21]. There was no observable change in the activities of the mice amongst the various experimental groups. Mouse care was conducted under approval by the MGH Institutional Animal Care Use Committee.
# [4] = tested on: diet-induced obese mice; assay: Dual energy X-ray absorptiometry (DXA) of lean, fat and total body mass
# Excerpt: FIGS. 2A-D are bar graphs showing the results of determinations of lean, fat, and total body mass by dual X-ray absorptiometry (DXA) of mice receiving continuous infusions of the pentapeptide […] or control vehicle alone for 16 weeks. At the time of the study the mice were 39 weeks of age and on the very high fat diet for 33 weeks. 2A. Fat versus lean mass. The fat mass is 40% less in the pentapeptide infused compared to the control vehicle infused mice. *P<0.0008. […] 2B. Total body mass (lean+fat) differences in peptide infused versus vehicle control infused obese mice. *P<0.002. 2C. Fat mass expressed as the fraction of fat mass in peptide infused mice versus vehicle control infused obese mice. *P<0.0008. 2D. Fat mass expressed as the percentage of body weight, peptide-infused versus vehicle control-infused obese mice. *P<0.001. N=6 mice per group. Values are means+/−SEMs.
# Mice were anesthetized with 0.02 ml of a 2% tribromoethanol solution per gram of body weight and scanned with a dual X-ray apparatus (Lunar Piximus, GE Medical Systems, Wauwatosa, Wis.). Total, fat, and lean body mass was quantitatively determined.
# [5] = after 16 weeks infusion, VHFD mice (FIG. 2A)
substance,measurement,setting,value
"LVKGRamide (LVKGR-NH2) [GLP-1(32-36)amide, pentapeptide derived from the C-terminus of the glucoincretin hormone GLP-1]",fasting plasma glucose,[1]; vehicle 8.8 (FIG. 5A),5.5 mM
same,fasting plasma insulin,[1]; vehicle 300 (FIG. 5B),250 pM
same,plasma circulating levels of glycerol and triglyceride,[2],improves; also recorded: lowered
same,"average weekly change in body weight gain, less than control vehicle","[3]; VHFD mice, 40 nanomoles/kg BW/day s.c. osmopump, measured over ten weeks (FIG. 1B)",50%
same,body weight at week two of infusions,"[3]; VHFD mice, average of six mice, vehicle 37.2",38.2 gms
same,time at which inhibition of weight gain reached statistical significance,"[3]; VHFD mice, continuous infusion 40 nanomoles/kg BW/day (FIG. 1A)",by week five; also recorded: as early as five weeks
same,energy intake (food intake),"[3]; VHFD mice, ten weeks of infusion, vehicle 1.11±0.025",1.15±0.030 Kcal/g body weight/week
same,Feed Efficiency decrease compared to vehicle,[3]; VHFD obese mice (FIG. 3),approximately 50%
same,Feed Efficiency index (effect in words),"[3]; end of 12 week infusion, p<0.06 vs vehicle (FIG. 3)",lowers
same,body weights decreased compared to vehicle control,"[3]; end of the sixteen week infusion, high fat diet-induced obese mice",50%
same,relative (%) fat mass compared to vehicle-treated mice (DXA),[4]; after 16 weeks infusion (FIG. 2C),decreased
same,fat mass reduction compared to vehicle control (DXA),[4]; [5],40%
same,lean mass change compared to vehicle control (DXA),[4]; [5],no significant difference
same,lean mass change compared to vehicle control (DXA),"[4]; after 16 weeks infusion, VHFD mice (FIG. 2A), listed as pentapeptide",no significant changes; also recorded: no significant difference
same,total body mass (body weight) (DXA),"[4]; after 16 weeks infusion, vs vehicle (FIG. 2B)",decreased
same,ratio of fat mass to body weight (DXA),"[4]; after 16 weeks infusion, vs vehicle (FIG. 2D)",decreased
